Experiments:
[1] = biological target: T1, MAGL (Rattus norvegicus, UniProt Q8R431); test: MAGL activity in rat cerebellum cytosol; type: biochemical; conditions: for MAGL activity, percent of control / MAGL (100 μM), percent of control: C inhib=100 μM in rat cerebellum cytosol; for MAGL activity, percent of control: Table 2
T1 sequence (Q8R431 1-303): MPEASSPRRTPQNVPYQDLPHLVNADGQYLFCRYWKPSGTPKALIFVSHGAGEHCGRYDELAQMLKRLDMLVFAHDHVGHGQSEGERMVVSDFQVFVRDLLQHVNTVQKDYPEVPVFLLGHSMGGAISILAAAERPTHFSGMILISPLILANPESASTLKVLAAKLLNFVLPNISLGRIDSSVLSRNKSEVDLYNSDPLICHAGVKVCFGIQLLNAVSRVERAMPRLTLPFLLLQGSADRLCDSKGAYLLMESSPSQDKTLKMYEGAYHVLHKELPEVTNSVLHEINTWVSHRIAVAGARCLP

[2] = biological target: T2, FAAH (Rattus norvegicus, UniProt P97612); test: In vitro FAAH activity in rat brain homogenates/membranes; type: biochemical; conditions: for FAAH activity, percent of control, 10 nM / FAAH activity, percent of control, 100 nM: rat brain homogenates, 15 min pre-incubation
T2 sequence (P97612 1-579): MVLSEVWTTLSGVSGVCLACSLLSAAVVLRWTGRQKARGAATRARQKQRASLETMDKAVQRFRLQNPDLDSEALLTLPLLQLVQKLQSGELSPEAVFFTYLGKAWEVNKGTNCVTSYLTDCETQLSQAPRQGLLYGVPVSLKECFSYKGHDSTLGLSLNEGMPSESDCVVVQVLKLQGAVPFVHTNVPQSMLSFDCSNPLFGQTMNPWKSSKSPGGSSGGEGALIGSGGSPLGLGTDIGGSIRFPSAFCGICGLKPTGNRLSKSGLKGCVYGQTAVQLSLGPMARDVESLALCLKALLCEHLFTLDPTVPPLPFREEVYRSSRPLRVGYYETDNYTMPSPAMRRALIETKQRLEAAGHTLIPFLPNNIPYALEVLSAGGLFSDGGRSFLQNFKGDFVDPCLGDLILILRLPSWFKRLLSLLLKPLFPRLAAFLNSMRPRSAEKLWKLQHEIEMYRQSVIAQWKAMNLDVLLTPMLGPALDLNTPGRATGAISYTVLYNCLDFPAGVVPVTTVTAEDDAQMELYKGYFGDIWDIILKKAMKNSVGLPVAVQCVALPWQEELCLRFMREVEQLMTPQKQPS

[3] = biological target: T3, FAAH (Mus musculus, UniProt O08914); test: In vivo FAAH inhibition, liver, after oral administration to mice
T3 sequence (O08914 1-579): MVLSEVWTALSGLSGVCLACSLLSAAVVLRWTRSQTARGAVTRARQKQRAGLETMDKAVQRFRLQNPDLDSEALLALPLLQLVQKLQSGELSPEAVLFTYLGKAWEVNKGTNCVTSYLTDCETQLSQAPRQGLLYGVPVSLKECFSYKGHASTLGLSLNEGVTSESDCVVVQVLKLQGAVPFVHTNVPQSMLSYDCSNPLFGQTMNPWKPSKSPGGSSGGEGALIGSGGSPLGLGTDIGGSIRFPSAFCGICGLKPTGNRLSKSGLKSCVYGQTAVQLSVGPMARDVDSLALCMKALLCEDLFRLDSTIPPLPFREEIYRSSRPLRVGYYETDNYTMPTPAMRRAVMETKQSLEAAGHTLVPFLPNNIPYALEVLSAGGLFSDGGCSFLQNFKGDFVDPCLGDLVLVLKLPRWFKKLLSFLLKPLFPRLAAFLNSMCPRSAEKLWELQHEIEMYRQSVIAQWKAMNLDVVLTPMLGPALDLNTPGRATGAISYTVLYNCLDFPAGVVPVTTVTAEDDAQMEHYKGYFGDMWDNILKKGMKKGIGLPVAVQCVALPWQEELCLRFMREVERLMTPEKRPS

[4] = biological target: T3, FAAH; test: In vivo FAAH inhibition, brain, after oral administration to mice
[5] = tested on: carboxylesterases (CEs); test: CE activity in rat liver microsomes; type: biochemical; conditions: for CEs (10 μM), percent of control: 10 μM in rat liver microsomes; for CEs activity, percent of control: C inhib=10 μM in rat liver microsomes, Table 2
[6] = CYP450 metabolic stability, mouse liver microsomes; type: in vitro ADME; conditions: C inhib=50 μM in mouse liver microsomes, 1 h incubation
[7] = 0.1 mg kg^−1 p.o. in mice, 8 h after administration, Table 4
[8] = 0.1 mg kg^−1 p.o., mice, post-dose
[9] = 30 mg kg^−1 p.o. in mice, 1 h after administration, Table 2
[10] = 0.1 mg kg^−1 p.o. in mice, 8 h after administration, Table 5

Structure (SMILES): O=C(Nc1cccnc1)N1CCC(Cc2cccc(Oc3ccc(C(F)(F)F)cn3)c2)CC1 [Compound 3, PF3845, reference compound]
- MAGL activity, percent of control [1]: 87±12% of control
- MAGL (100 μM), percent of control ([1]; Table 4): 87±12% of control
- FAAH activity, percent of control, 10 nM ([2]; Table 2): 101±31% of control
- FAAH activity, percent of control, 100 nM ([2]; Table 2): 7±4% of control
- Liver FAAH activity, percent of control [3, 7]: 7±4% of control
- time of maximum inhibitory effect in the liver [3, 8]: 1 h
- Liver FAAH activity, percent of control [3, 9]: 2±2% of control
- inhibition at 30 mg/kg ([3]; mouse, po, read-out: FAAH inhibition in the liver): > 90%
- Brain FAAH activity, percent of control [4, 7]: 5±1% of control
- time of maximal inhibitory effect in the brain (t max) [4, 8]: 8 h
- Brain FAAH activity, percent of control [4, 9]: 1±0% of control
- FAAH inhibition in the brain ([4]; 30 mg kg^−1 p.o., mice, 1 h post-administration): over 90%
- CEs (10 μM), percent of control ([5]; Table 4): 95±17% of control
- CEs activity, percent of control [5]: 95±17% of control

Structure (SMILES): CC1(C)COCN1C(=O)n1cnc(-c2ccccc2)c1 [Compound 8 f, (4,4‐Dimethyloxazolidin‐3‐yl)(4‐phenyl‐1H‐imidazol‐1‐yl)methanone]
- MAGL (100 μM), percent of control ([1]; Table 5): 92±3% of control
- FAAH activity, percent of control, 100 nM ([2]; Table 5): 94±10% of control
- Liver FAAH activity, percent of control [3, 10]: 53±6% of control
- Brain FAAH activity, percent of control [4, 10]: 92±7% of control
- CEs (10 μM), percent of control ([5]; Table 5): 95±6% of control

Structure (SMILES): CN(C(=O)n1cnc(-c2ccccc2)c1)C1CCOCC1 [Compound 8 i]
- MAGL (100 μM), percent of control ([1]; Table 5): 96±1% of control
- FAAH activity, percent of control, 100 nM ([2]; Table 5): 104±18% of control
- Liver FAAH activity, percent of control [3, 10]: 12±4% of control
- Brain FAAH activity, percent of control [4, 10]: 38±18% of control
- CEs (10 μM), percent of control ([5]; Table 5): 96±7% of control

Structure (SMILES): CN(C(=O)n1cnc(-c2ccccc2)c1)C1CCCCC1 [Compound 8 j]
- MAGL (100 μM), percent of control ([1]; Table 5): 91±3% of control
- FAAH activity, percent of control, 100 nM ([2]; Table 5): 37±3% of control
- Liver FAAH activity, percent of control [3, 10]: 33±2% of control
- Brain FAAH activity, percent of control [4, 10]: 86±5% of control
- CEs (10 μM), percent of control ([5]; Table 5): 90±11% of control

Structure (SMILES): CN(C(=O)n1cnc(-c2cccnc2)c1)C1CCCCC1 [Compound 8 k, N ‐Cyclohexyl‐N‐methyl‐4‐(pyridin‐3‐yl)‐1H‐imidazole‐1‐carboxamide]
- MAGL (100 μM), percent of control ([1]; Table 5): 94±4% of control
- FAAH activity, percent of control, 100 nM ([2]; Table 5): 75±7% of control
- Liver FAAH activity, percent of control [3, 10]: 13±4% of control
- Brain FAAH activity, percent of control [4, 10]: 75±16% of control
- CEs (10 μM), percent of control ([5]; Table 5): 97±3% of control

Structure (SMILES): CN(C(=O)n1nnc2ccccc21)c1ccccc1 [Compound 10 a]
- IC50 [1]: > 100 µM
- MAGL activity, percent of control [1]: 73±4% of control
- IC50 [2]: 7 nM
- FAAH activity, percent of control, 10 nM ([2]; Table 2): 42±12% of control
- FAAH activity, percent of control, 100 nM ([2]; Table 2): 1±0% of control
- Liver FAAH activity, percent of control [3, 9]: 34±5% of control
- Brain FAAH activity, percent of control [4, 9]: 34±9% of control
- CEs activity, percent of control [5]: 31±2% of control
- IC50 ([5]; read-out: CE IC50, rat liver microsomes): > 1000 nM

Structure (SMILES): O=C(NCc1ccccc1)n1nnc2ccccc21 [Compound 10 e]
- MAGL activity, percent of control [1]: 4±1% of control
- FAAH activity, percent of control, 10 nM ([2]; Table 2): 13±1% of control
- FAAH activity, percent of control, 100 nM ([2]; Table 2): 2±1% of control
- Liver FAAH activity, percent of control [3, 9]: 84±6% of control
- Brain FAAH activity, percent of control [4, 9]: 87±7% of control
- CEs activity, percent of control [5]: 67±4% of control

Structure (SMILES): CN(Cc1ccccc1)C(=O)n1nnc2ccccc21 [Compound 10 f]
- MAGL activity, percent of control [1]: 2±2% of control
- FAAH activity, percent of control, 10 nM ([2]; Table 2): 0±0% of control
- FAAH activity, percent of control, 100 nM ([2]; Table 2): 0±0% of control
- Liver FAAH activity, percent of control [3, 9]: 6±2% of control
- Brain FAAH activity, percent of control [4, 9]: 1±0% of control
- CEs activity, percent of control [5]: 24±1% of control

Structure (SMILES): O=C(N1CCC(Cc2ccccc2)CC1)n1nnc2ccccc21 [Compound 10 h]
- MAGL activity, percent of control [1]: 7±5% of control
- FAAH activity, percent of control, 10 nM ([2]; Table 2): 0±0% of control
- FAAH activity, percent of control, 100 nM ([2]; Table 2): 0±0% of control
- Liver FAAH activity, percent of control [3, 9]: 6±1% of control
- Brain FAAH activity, percent of control [4, 9]: 8±1% of control
- CEs activity, percent of control [5]: 24±2% of control

Structure (SMILES): Cl.O=C(N1CCN(Cc2ccccc2)CC1)n1nnc2ccccc21 [Compound 10 i]
- MAGL activity, percent of control [1]: 7±4% of control
- FAAH activity, percent of control, 10 nM ([2]; Table 2): 0±0% of control
- FAAH activity, percent of control, 100 nM ([2]; Table 2): 0±0% of control
- Liver FAAH activity, percent of control [3, 9]: 15±4% of control
- Brain FAAH activity, percent of control [4, 9]: 20±5% of control
- CEs activity, percent of control [5]: 27±1% of control

Structure (SMILES): O=C(N1CCN(c2ccccc2)CC1)n1nnc2ccccc21 [Compound 10 j]
- MAGL activity, percent of control [1]: 12±4% of control
- FAAH activity, percent of control, 10 nM ([2]; Table 2): 1±0% of control
- FAAH activity, percent of control, 100 nM ([2]; Table 2): 0±0% of control
- Liver FAAH activity, percent of control [3, 9]: 30±5% of control
- Brain FAAH activity, percent of control [4, 9]: 88±7% of control
- CEs activity, percent of control [5]: 28±2% of control

Structure (SMILES): CN(C(=O)n1nnc2ccccc21)C1CCCCC1 [Compound 10 k]
- MAGL activity, percent of control [1]: 73±3% of control
- FAAH activity, percent of control, 10 nM ([2]; Table 2): 1±0% of control
- FAAH activity, percent of control, 100 nM ([2]; Table 2): 1±2% of control
- Liver FAAH activity, percent of control [3, 9]: 1±0% of control
- Brain FAAH activity, percent of control [4, 9]: 0±0% of control
- CEs activity, percent of control [5]: 30±1% of control

Structure (SMILES): CC1(C)COCN1C(=O)n1nnc2ccc(-c3ccccc3)cc21 [Compound 11 d, (4,4‐Dimethyloxazolidin‐3‐yl)(6‐phenyl‐1H‐benzo[d][1,2,3]triazol‐1‐yl)methanone]
- CYPs (50 μM), percentage remaining [6]: 73±2 percentage remaining
- Liver FAAH activity, percent of control [3, 7]: 54±6% of control
- Brain FAAH activity, percent of control [4, 7]: 76±18% of control
- CEs (10 μM), percent of control ([5]; Table 4): 92±2% of control
